Measured values published in US11040981B2, “Pyrrolotriazine compounds and methods of inhibiting TAM kinases” (Syros Pharmaceuticals, Inc., priority 2017, dated 2021).

Assays:
TYRO3 = molecular target: T1, TYRO3 (Homo sapiens, UniProt Q06418); assay: TR-FRET kinase activity assay, TYRO3; type: biochemical; conditions: ATP at Km, 60 minutes
T1 sequence (Q06418 41-890): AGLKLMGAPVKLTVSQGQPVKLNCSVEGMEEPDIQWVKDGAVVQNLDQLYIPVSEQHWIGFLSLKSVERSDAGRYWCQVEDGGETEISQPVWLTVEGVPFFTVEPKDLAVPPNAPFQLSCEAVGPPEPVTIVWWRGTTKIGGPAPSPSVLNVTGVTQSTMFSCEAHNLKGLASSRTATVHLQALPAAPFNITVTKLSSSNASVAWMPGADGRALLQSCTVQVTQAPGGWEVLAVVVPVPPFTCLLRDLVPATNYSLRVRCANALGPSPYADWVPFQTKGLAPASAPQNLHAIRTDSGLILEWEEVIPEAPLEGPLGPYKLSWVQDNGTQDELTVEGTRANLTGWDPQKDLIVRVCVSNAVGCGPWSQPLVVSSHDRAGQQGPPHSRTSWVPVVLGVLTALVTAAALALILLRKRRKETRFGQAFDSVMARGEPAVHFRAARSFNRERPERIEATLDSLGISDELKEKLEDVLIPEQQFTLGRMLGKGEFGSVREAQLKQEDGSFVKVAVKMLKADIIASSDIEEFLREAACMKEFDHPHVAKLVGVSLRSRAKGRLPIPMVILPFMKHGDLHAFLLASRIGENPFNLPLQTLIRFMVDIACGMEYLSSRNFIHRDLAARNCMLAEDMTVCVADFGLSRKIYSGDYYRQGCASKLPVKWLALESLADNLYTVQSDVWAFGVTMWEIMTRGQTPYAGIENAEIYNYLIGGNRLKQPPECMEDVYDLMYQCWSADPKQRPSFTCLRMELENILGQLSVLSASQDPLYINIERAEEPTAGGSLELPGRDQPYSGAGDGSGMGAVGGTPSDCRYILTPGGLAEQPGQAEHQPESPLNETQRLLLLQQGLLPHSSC
How it was run: (§1)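 Enzyme, fluorescent peptide substrate and compound were mixed, and the reaction was started with ATP at each kinase's Km, in 50 mM HEPES pH 7.5, 10 mM MgCl2, 1 mM EGTA, 0.01% Brij 35, 1 mM DTT at RT. After 60 minutes EDTA quench, Eu-labelled phospho-specific antibody was added for 30 minutes, and IC50 was derived from TR-FRET signal loss.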

AXL = molecular target: T2, AXL (Homo sapiens, UniProt P30530); assay: TR-FRET kinase activity assay, AXL; type: biochemical; conditions: ATP at Km, 60 minutes
T2 sequence (P30530 26-894): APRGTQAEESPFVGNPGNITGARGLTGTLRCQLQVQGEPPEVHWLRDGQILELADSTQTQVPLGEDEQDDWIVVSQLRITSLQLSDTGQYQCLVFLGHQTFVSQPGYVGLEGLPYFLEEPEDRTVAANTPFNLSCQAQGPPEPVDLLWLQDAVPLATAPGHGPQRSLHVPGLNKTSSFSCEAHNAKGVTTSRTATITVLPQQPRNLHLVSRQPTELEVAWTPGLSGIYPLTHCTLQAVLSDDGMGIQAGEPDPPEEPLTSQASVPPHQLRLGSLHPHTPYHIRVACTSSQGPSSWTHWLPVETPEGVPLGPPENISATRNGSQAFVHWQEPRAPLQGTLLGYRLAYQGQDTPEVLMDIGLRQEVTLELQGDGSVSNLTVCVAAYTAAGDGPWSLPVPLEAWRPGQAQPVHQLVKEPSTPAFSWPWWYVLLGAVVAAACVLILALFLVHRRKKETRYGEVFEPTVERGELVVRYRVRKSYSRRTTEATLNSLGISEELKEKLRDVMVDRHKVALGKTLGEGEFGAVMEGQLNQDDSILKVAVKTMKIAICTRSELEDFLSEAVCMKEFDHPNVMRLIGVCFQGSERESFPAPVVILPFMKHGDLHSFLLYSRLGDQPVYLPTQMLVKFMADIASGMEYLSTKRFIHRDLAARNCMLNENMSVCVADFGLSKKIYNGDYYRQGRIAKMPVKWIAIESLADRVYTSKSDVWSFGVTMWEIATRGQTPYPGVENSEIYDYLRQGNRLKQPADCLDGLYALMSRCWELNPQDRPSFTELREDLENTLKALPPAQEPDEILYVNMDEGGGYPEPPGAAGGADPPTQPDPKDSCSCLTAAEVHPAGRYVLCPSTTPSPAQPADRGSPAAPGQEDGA
How it was run: as §1

Row | Compound | IC50 (TYRO3) [nM] | IC50 (AXL) [nM]
1 | COC[C@H](C)Nc1ncc2c([C@H]3CCCN(c4ccnc(C)n4)C3)cc([C@H]3CC[C@H](O)CC3)n2n1 [Compound 377] | ≤ 100 | 100 to 1000
2 | COC[C@H](C)Nc1ncc2c([C@@H]3CCCN(c4ccnc(C)n4)C3)cc([C@H]3CC[C@H](O)CC3)n2n1 [Compound 378] | 100 to 1000 | 1000 to 10000
3 | COCC(C)Nc1ncc2c(-c3cnn(CC4CCCO4)c3)cc(C3CCC(O)CC3)n2n1 (centres unmarked) [Compound 379] | ≤ 100 | ≤ 100
4 | COC[C@H](C)Nc1ncc2c(-c3cnn(CC4CCCO4)c3)cc([C@H]3CC[C@H](O)CC3)n2n1 (some centres unmarked) [Compound 380] | ≤ 100 | ≤ 100
5 | COC[C@H](C)Nc1ncc2c(-c3ccnc(C)c3)cc([C@H]3CC[C@@](C)(O)CC3)n2n1 [Compound 381] | ≤ 100 | ≤ 100
6 | COC[C@H](C)Nc1ncc2c(-c3cnn(CCC#N)c3)cc([C@H]3CC[C@](C)(O)CC3)n2n1 [Compound 382] | ≤ 100 | ≤ 100
7 | CNC(=O)c1cc(-c2cc([C@H]3CC[C@H](O)CC3)n3nc(N[C@@H](C)CC(F)(F)F)ncc23)ccn1 [Compound 384] | ≤ 100 | ≤ 100
8 | CNC(=O)c1cc(-c2cc([C@H]3CC[C@H](O)CC3)n3nc(N[C@@H](C)COC(F)F)ncc23)cc(C)n1 [Compound 385] | ≤ 100 | 100 to 1000
9 | COC[C@H](C)Nc1ncc2c(-c3ccnc(O[C@H]4CCNC4)c3)cc([C@H]3CC[C@H](O)CC3)n2n1 [Compound 386] | ≤ 100 | ≤ 100
10 | C[C@@H](CN(C)C)Nc1ncc2c(-c3cnn(C4COC4)c3)cc([C@H]3CC[C@H](O)CC3)n2n1 [Compound 387] | 100 to 1000 | 1000 to 10000
11 | C[C@H](CN(C)C)Nc1ncc2c(-c3cnn(C4COC4)c3)cc([C@H]3CC[C@H](O)CC3)n2n1 [Compound 388] | 1000 to 10000 | 1000 to 10000
12 | COC[C@H](C)Nc1ncc2c(-c3ccnc(O[C@H]4CCCNC4)c3)cc([C@H]3CC[C@H](O)CC3)n2n1 [Compound 389] | ≤ 100 | ≤ 100
13 | COC[C@H](C)Nc1ncc2c(-c3ccnc(O[C@@H]4CCCNC4)c3)cc([C@H]3CC[C@H](O)CC3)n2n1 [Compound 390] | ≤ 100 | ≤ 100
14 | COC[C@H](C)Nc1ncc2c(-c3ccnc(C)c3)cc([C@H]3CC[C@](C)(O)CC3)n2n1 [Compound 391] | ≤ 100 | ≤ 100
15 | COC[C@H](C)Nc1ncc2c(-c3cnn(CC4CCOCC4)c3)cc([C@H]3CC[C@H](O)CC3)n2n1 [Compound 392] | ≤ 100 | ≤ 100
16 | CC(COC(F)F)Nc1ncc2c(-c3cnn(C(C)(C)C(=O)N4CCOCC4)c3)cc(C3CCC(O)CC3)n2n1 (centres unmarked) [Compound 393] | ≤ 100 | ≤ 100
17 | COC[C@H](C)Nc1ncc2c(-c3cnn(C4CCN(C)C4=O)c3)cc([C@H]3CC[C@H](O)CC3)n2n1 (stereo partly drawn) [Compound 394, 3-(4-(7-((trans)-4-hydroxycyclohexyl)-2-(((S)-1-methoxypropan-2-yl)amino)pyrrolo[2,1-f][1,2,4]triazin-5-yl)-1H-pyrazol-1-yl)-1-methylpyrrolidin-2-one] | ≤ 100 | ≤ 100
18 | COC[C@H](C)Nc1ncc2c(-c3cnn(CC4CC(=O)N(C)C4)c3)cc([C@H]3CC[C@H](O)CC3)n2n1 (some centres unmarked) [Compound 395] | ≤ 100 | ≤ 100
19 | COC[C@H](C)Nc1ncc2c(-c3cnn([C@@H]4CCN(C(C)=O)C4)c3)cc([C@H]3CC[C@H](O)CC3)n2n1 [Compound 396] | ≤ 100 | ≤ 100
20 | COC[C@H](C)Nc1ncc2c(-c3cnn([C@H]4CCN(C(C)=O)C4)c3)cc([C@H]3CC[C@H](O)CC3)n2n1 [Compound 397] | ≤ 100 | ≤ 100

Row | Compound | IC50 (TYRO3) [nM] | IC50 (AXL) [nM]
21 | CNC(=O)c1cncc(-c2cc([C@H]3CC[C@H](O)CC3)n3nc(N[C@@H](C)COC(F)F)ncc23)c1 [Compound 398] | ≤ 100 | ≤ 100
22 | CC1(Nc2ncc3c(-c4cnn(C5COC5)c4)cc(C4CCC(O)CC4)n3n2)COC1 (centres unmarked) [Compound 399] | ≤ 100 | ≤ 100
23 | COC[C@H](C)Nc1ncc2c(-c3ccnc(O[C@H]4CCN(C)C4)c3)cc([C@H]3CC[C@H](O)CC3)n2n1 [Compound 400] | ≤ 100 | ≤ 100
24 | COC[C@H](C)Nc1ncc2c(-c3ccnc(O[C@@H]4CCNC4)c3)cc([C@H]3CC[C@H](O)CC3)n2n1 [Compound 401] | ≤ 100 | ≤ 100
25 | COC[C@H](C)Nc1ncc2c(-c3ccnc(O[C@@H]4CCN(C)C4)c3)cc([C@H]3CC[C@H](O)CC3)n2n1 [Compound 402] | ≤ 100 | ≤ 100
26 | COC[C@H](C)Nc1ncc2c(-c3ccnc(O[C@H]4CCCN(C)C4)c3)cc([C@H]3CC[C@H](O)CC3)n2n1 [Compound 403] | ≤ 100 | ≤ 100
27 | COC[C@H](C)Nc1ncc2c(-c3ccnc(O[C@@H]4CCCN(C)C4)c3)cc([C@H]3CC[C@H](O)CC3)n2n1 [Compound 404] | ≤ 100 | ≤ 100
28 | C[C@@H](COC(F)F)Nc1ncc2c(-c3ccnc(N4CCOCC4)c3)cc([C@H]3CC[C@H](O)CC3)n2n1 [Compound 405] | ≤ 100 | ≤ 100
29 | COC[C@H](C)Nc1ncc2c(-c3cnn(C4COC4)c3)cc(C3CCC(=O)CC3)n2n1 [Compound 406] | ≤ 100 | 100 to 1000
30 | CNC(=O)c1ncc(-c2cc([C@H]3CC[C@H](O)CC3)n3nc(N[C@@H](C)COC(F)F)ncc23)cn1 [Compound 407] | ≤ 100 | ≤ 100
31 | COC[C@H](C)Nc1ncc2c(-c3cnn(C4(C(=O)N5CCCC5)CC4)c3)cc([C@H]3CC[C@H](O)CC3)n2n1 [Compound 408] | ≤ 100 | ≤ 100
32 | CNC(=O)c1cc(-c2cc([C@H]3CC[C@H](O)CC3)n3nc(N[C@@H](C)COC(F)F)ncc23)ccn1 [Compound 411] | ≤ 100 | ≤ 100
33 | C[C@@H](CC(F)(F)F)Nc1ncc2c(C3=CCN(C(=O)OC(C)(C)C)CC3)cc([C@H]3CC[C@H](O)CC3)n2n1 [Compound 412] | ≤ 100 | ≤ 100
34 | CC(=O)N1CCN(Cc2ccc(-c3cc([C@H]4CC[C@H](O)CC4)n4nc(N[C@@H](C)COC(F)F)ncc34)cc2)CC1 [Compound 413] | ≤ 100 | ≤ 100
35 | COC[C@H](C)Nc1ncc2c(-c3cnn(C4(C(=O)N5CCOCC5)CC4)c3)cc([C@H]3CC[C@H](O)CC3)n2n1 [Compound 414] | ≤ 100 | ≤ 100
36 | COC[C@H](C)Nc1ncc2c(-c3cnn(C4(C(=O)NC(C)C)CC4)c3)cc([C@H]3CC[C@H](O)CC3)n2n1 [Compound 415] | ≤ 100 | ≤ 100
37 | COC[C@H](C)Nc1ncc2c(-c3ccnc(N[C@@H]4CCOC4)c3)cc([C@H]3CC[C@H](O)CC3)n2n1 [Compound 416] | ≤ 100 | ≤ 100
38 | COC[C@H](C)Nc1ncc2c(-c3ccnc(NC4CCOC4)c3)cc([C@H]3CC[C@H](O)CC3)n2n1 (some centres unmarked) [Compound 418] | ≤ 100 | ≤ 100
39 | COC[C@H](C)Nc1ncc2c(-c3cnn(CS(C)(=O)=O)c3)cc([C@H]3CC[C@H](O)CC3)n2n1 [Compound 419] | ≤ 100 | ≤ 100
40 | COC[C@H](C)Nc1ncc2c(-c3cnn(CC4COC4)c3)cc([C@H]3CC[C@H](O)CC3)n2n1 [Compound 420] | ≤ 100 | ≤ 100
